Experimental data from ChEMBL document CHEMBL2073828, “The breast cancer resistance protein (Bcrp1/Abcg2) restricts exposure to the dietary carcinogen 2-amino-1-methyl-6-phenylimidazo[4,5-b]pyridine” (Cancer Res, 2003).

How the values were obtained:
[1] = biological target: T1, Broad substrate specificity ATP-binding cassette transporter ABCG2 (Mus musculus, UniProt Q7TMS5); test: TP_TRANSPORTER: transcellular transport in MDCKII; assay type: functional, cell-based; details: dog, mdck-ii
T1 sequence (Q7TMS5 whole entry): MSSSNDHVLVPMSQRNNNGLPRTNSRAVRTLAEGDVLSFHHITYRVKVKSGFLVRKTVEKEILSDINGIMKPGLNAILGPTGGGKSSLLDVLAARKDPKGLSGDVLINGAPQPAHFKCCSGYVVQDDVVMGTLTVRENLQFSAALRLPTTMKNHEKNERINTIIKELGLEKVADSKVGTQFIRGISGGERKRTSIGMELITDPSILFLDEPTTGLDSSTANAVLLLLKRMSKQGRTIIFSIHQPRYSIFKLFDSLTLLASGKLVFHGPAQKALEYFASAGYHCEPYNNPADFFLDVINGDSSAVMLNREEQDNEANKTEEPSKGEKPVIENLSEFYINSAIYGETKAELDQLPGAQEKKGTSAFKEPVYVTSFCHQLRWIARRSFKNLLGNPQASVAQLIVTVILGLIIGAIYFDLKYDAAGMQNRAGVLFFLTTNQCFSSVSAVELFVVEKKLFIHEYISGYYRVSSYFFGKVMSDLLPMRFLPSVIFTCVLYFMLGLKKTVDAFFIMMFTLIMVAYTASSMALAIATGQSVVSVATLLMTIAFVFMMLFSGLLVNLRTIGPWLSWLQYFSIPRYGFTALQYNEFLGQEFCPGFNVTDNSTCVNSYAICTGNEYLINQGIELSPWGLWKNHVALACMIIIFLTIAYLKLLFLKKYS

[2] = biological target: T1, Broad substrate specificity ATP-binding cassette transporter ABCG2; test: TP_TRANSPORTER: intestinal excretion; assay type: functional, organism-based; details: in vivo
[3] = biological target: T1, Broad substrate specificity ATP-binding cassette transporter ABCG2; test: TP_TRANSPORTER: biliary excretion; assay type: functional, organism-based, Bile; details: in vivo

Measured: Activity

Cn1c(N)nc2ncc(-c3ccccc3)cc21 [2-AMINO-1-METHYL-6- PHENYLIMIDAZO[4,5- B]PYRIDINE]
substrate []: all assays above
